Experimental data published in ChEMBL document CHEMBL3244430, “Antitumor agents. 31. Helenalin sym-dimethylethylenediamine reaction products and related derivatives” (J Med Chem, 1978).

Assays:
W256 = assay: Antitumor activity against rat Walker 256 cells allografted in Sprague-Dawley rat assessed as survival rate at 2.5 mg/kg relative to control; format: functional
[1] = Cytotoxicity against human Hep2 cells assessed as growth inhibition by microtiter method; format: functional; details: HEp-2, read-out: ED50 (the source's name)
P388 [2] = assay: Antitumor activity against mouse P388 cells allografted in DBA/2 mouse assessed as survival rate at 48 mg/kg relative to control; format: functional
P388 [3] = assay: Antitumor activity against mouse P388 cells allografted in DBA/2 mouse assessed as survival rate at 25 mg/kg relative to control; format: functional
P388 [4] = assay: Antitumor activity against mouse P388 cells allografted in DBA/2 mouse assessed as survival rate at 10 mg/kg relative to control; format: functional
P388 [5] = assay: Antitumor activity against mouse P388 cells allografted in DBA/2 mouse assessed as survival rate at 4 mg/kg relative to control; format: functional
P388 [6] = assay: Antitumor activity against mouse P388 cells allografted in DBA/2 mouse assessed as survival rate at 16.8 mg/kg relative to control; format: functional
[7] = Toxicity in DBA/2 mouse allografted with mouse P388 cells assessed as mortality after 4 days; format: organism-based; details: read-out: MNTD
[8] = Toxicity in Sprague-Dawley rat allografted with rat Walker 256 cells assessed as mortality after 4 days; format: organism-based; details: read-out: MNTD

SMILES	T/C (W256)	EC50 [1]	T/C (P388 [3])	further results
C[C@@H]1C[C@H]2OC(=O)[C@@H](C)[C@H]2[C@H](O)[C@]2(C)C(=O)C=C[C@@H]12	207%	0.81 µg/mL	–	T/C (P388 [2]): 138%
C[C@@H]1C[C@H]2OC(=O)C(CN(C)C)[C@H]2[C@H](O)[C@]2(C)C(=O)C=C[C@@H]12 (some centres undefined)	–	0.6 µg/mL	130%	–
C[C@@H]1C[C@@H](O)[C@@H]([C@H]2CN(C)CCN(C)C2=O)[C@H](O)[C@]2(C)C(=O)C=C[C@@H]12	170%	1.87 µg/mL	126%	–
CC(=O)O[C@H]1[C@H](C2CN(C)CCN(C)C2=O)[C@H](O)C[C@@H](C)[C@@H]2C=CC(=O)[C@]21C (some centres undefined)	–	4.96 µg/mL	100%	–
CC(=O)O[C@H]1[C@H](C2CN(C)CCN(C)C2=O)[C@H](OC(=O)/C=C/c2ccccc2)C[C@@H](C)[C@@H]2C=CC(=O)[C@]21C (some centres undefined)	–	0.84 µg/mL	102%	–
C[C@@H]1C[C@@H](OC(=O)/C=C/c2ccccc2)[C@@H](C2CN(C)CCN(C)C2=O)[C@H](O)[C@]2(C)C(=O)C=C[C@@H]12 (some centres undefined)	–	2.89 µg/mL	–	T/C (P388 [4]): 123%
C[C@@H]1C[C@@H](OC(=O)/C=C/c2ccccc2)[C@@H](C2CN(C)CCN(C)C2=O)[C@H](OC(=O)/C=C/c2ccccc2)[C@]2(C)C(=O)C=C[C@@H]12 (some centres undefined)	288%	0.75 µg/mL	–	T/C (P388 [4]): 100%
C[C@@H]1C[C@H]2OC(=O)C(CN(C)C)[C@H]2[C@H](O)[C@]2(C)C(=O)CC(N(C)C)[C@@H]12 (some centres undefined)	136%	0.85 µg/mL	–	T/C (P388 [4]): 102%
C=C1C(=O)O[C@@H]2C[C@@H](C)[C@@H]3C=CC(=O)[C@@]3(C)[C@@H](OC(=O)/C=C/c3ccccc3)[C@H]12	157%	0.04 µg/mL	–	T/C (P388 [5]): 123%
C[C@@H]1C[C@H]2OC(=O)C(CN(C)C)[C@H]2[C@H](O)[C@]2(C)C(O)CC[C@@H]12 (some centres undefined)	–	3.69 µg/mL	–	–
C=C1C(=O)O[C@@H]2C[C@@H](C)[C@@H]3C=CC(=O)[C@@]3(C)[C@@H](OC(C)=O)[C@H]12 [ANGUSTIBALIN]	–	0.29 µg/mL	78%	–
O=c1[nH]cc(F)c(=O)[nH]1 [FLUOROURACIL]	–	–	186%	–
C=C1C(=O)O[C@@H]2C[C@@H](C)[C@@H]3C=CC(=O)[C@@]3(C)[C@@H](O)[C@H]12 [HELENALIN]	316%	0.08 µg/mL	–	T/C (P388 [6]): 127%; MTD at 96 h [7]: 16.8 mg/kg; MTD at 96 h [8]: 2.5 mg/kg
N[C@@H](Cc1ccc(N(CCCl)CCCl)cc1)C(=O)O [MELPHALAN]	317%	–	168%	–
